What was measured:
[1] = Liver-targeted tissue distribution profile study in rats; assay type: in vivo, Sprague Dawley rats; details: rat, single 10 mg/kg PO
Procedure: Plasma and liver (target organ) concentrations of test compounds were determined in rats following a single per os (PO) administration of the test compounds. Male Sprague Dawley rats (6-8 weeks of age, Charles River Labs) were fasted overnight and a single dose of test compounds (10 mg/kg; as a suspension in 0.5% methyl cellulose) was administered by PO gavage. Rats were then sacrificed at 4 and 24 h after administration of the test compounds, and plasma and liver tissue samples were collected. Liver tissue samples were homogenized in 5 volumes of water:acetonitrile (50/50; v/v) mixture using a bead mill homogenizer. Plasma and liver homogenate samples were processed by protein precipitation using acetonitrile and the concentrations of the test compounds were determined by liquid chromatography-tandem mass spectrometry (SciEx triple quad 5500+ with Exion UPLC).
Liver and plasma exposures at the 4 h and 24 h timepoints for the various compounds are described in Table 5 below. Measured compound concentrations are as follows: ++++>10 μM; 10 μM≥+++>5 μM; 5 μM≥++>1 μM; 1 μM≥+>0.25 μM; and 0.25 μM≥−.

[2] = biological target: T1, human recombinant C-terminal His-tagged LDHA (Homo sapiens, UniProt P00338); test: Human LDHA enzyme assay, human serum albumin (HSA) shift; assay type: biochemical; details: final concentration 10% HSA
T1 construct: His (C)
Procedure: (§1) Compounds were dissolved in DMSO and preincubated with human recombinant C-terminal His-tagged LDHA (0.070 μg/mL) for 10 min at room temperature in assay buffer consisting 50 mM Tris, pH 7.5 and 100 mM NaCl in black walled, clear bottom, non-binding 96-well plates. Equal volumes of substrate solution containing 100 μM of pyruvate and 100 μM of NADH in assay buffer was added to each well (final concentration 0.035 μg/mL enzyme, 50 μM pyruvate, 50 μM NADH, and 1% DMSO). For human serum albumin (HSA) shift assay, the compounds were preincubated with the enzyme in assay buffer containing 20% HSA before substrate addition (final concentration 10% HSA). The reaction was monitored at 340 nm on a plate reader (Molecular Devices) in kinetic mode for 15 min. The rate of the reaction was determined by plotting absorbance vs time.

[3] = biological target: T1, human recombinant C-terminal His-tagged LDHA; test: Human LDHA enzyme assay; assay type: biochemical; details: 50 μM pyruvate, 50 μM NADH, no HSA
Procedure: as §1

[4] = test system: fresh primary mouse hepatocytes; test: Primary mouse hepatocyte assay (lactate production); assay type: cell-based
Procedure: Compounds were evaluated in an ex vivo assay consisting of fresh primary mouse hepatocytes. Hepatocytes were isolated from wild type mice (C57BL/6NCrl from Charles River Labs) using a two-step collagenase perfusion technique which involves a sequential perfusion of anesthetized mice with Hanks' balanced salt solution and collagenase. Following isolation, viable wild type hepatocytes (0.1 M cells/well) were incubated with test compound in presence of pyruvate and compound potency was evaluated by measuring the lactate produced by the cells using liquid chromatography coupled to mass spectrometry. Chromatographic separation was achieved on an XDB-C18 4.6×50 mm column (Agilent, Cat #927975-902) at a flow rate of 1 mL/min Mobile phase A consisted of 0.1% formic acid in water and mobile phase B consisted of acetonitrile. A gradient program was initiated starting at 5% B which was held for 1 minutes, then ramped from 5% to 95% B over 1 minute. After holding at 95% B for 1 minute, the program changed back to 5% B. The column was equilibrated with 5% B for […] before the next injection. The mass spectrometer was operated in negative mode with electrospray ionization. The following transition along with their collision energy (CE) were used: 89→43 (CE: −16 V) for lactate and 92→45 (CE: −16 V) for ^13C3-Lactate (internal standard).

[5] = Run at 0.4M cells/well concentration of hepatocytes

SMILES	Measured Compound Concentrations Liver - 4 h [1]	Measured Compound Concentrations Liver - 24 h [1]	Measured Compound Concentrations Plasma - 4 h [1]	Measured Compound Concentrations Plasma - 24 h [1]	IC50 [2] [nM]	IC50 [3] [nM]	IC50 ([4]; 0.1 M cells/well) [nM]	IC50 [4, 5] [nM]
NS(=O)(=O)c1ccc(Cc2c(-c3cccc(Cl)c3)nn(-c3nc(C(=O)O)cs3)c2CC2CC2)cc1F [Example 17, 2-(3-(3-chlorophenyl)-5-(cyclopropylmethyl)-4-(3-fluoro-4-sulfamoylbenzyl)-1H-pyrazol-1-yl)thiazole-4-carboxylic acid]	+++ (10 μM≥+++>5 μM)	− (0.25 μM≥−)	− (0.25 μM≥−)	− (0.25 μM≥−)	1 to 10	< 1	< 100	–
NS(=O)(=O)c1ccc(Cc2c(-c3cccc(OC(F)(F)F)c3)nn(-c3nc(C(=O)O)cs3)c2CC2CC2)cc1F [Example 19, 2-(5-(cyclopropylmethyl)-4-(3-fluoro-4-sulfamoylbenzyl)-3-(3-(trifluoromethoxy)phenyl)-1H-pyrazol-1-yl)thiazole-4-carboxylic acid]	+++ (10 μM≥+++>5 μM)	− (0.25 μM≥−)	− (0.25 μM≥−)	− (0.25 μM≥−)	1 to 10	< 1	100 to 250	–
NS(=O)(=O)c1ccc(Cc2c(-c3ccc(F)c(Cl)c3)nn(-c3nc(C(=O)O)cs3)c2CC2CC2)cc1F [Example 8, 2-(3-(3-Chloro-4-fluorophenyl)-5-(cyclopropylmethyl)-4-(3-fluoro-4-sulfamoylbenzyl)-1H-pyrazol-1-yl)thiazole-4-carboxylic acid]	+++ (10 μM≥+++>5 μM)	− (0.25 μM≥−)	− (0.25 μM≥−)	− (0.25 μM≥−)	1 to 10	< 1	–	100 to 250
NS(=O)(=O)c1ccc(Cc2c(-c3cccc(C(F)(F)F)c3)nn(-c3nc(C(=O)O)cs3)c2CC2CC2)cc1F [Example 18, 2-(5-(cyclopropylmethyl)-4-(3-fluoro-4-sulfamoylbenzyl)-3-(3-(trifluoromethyl)phenyl)-1H-pyrazol-1-yl)thiazole-4-carboxylic acid]	+++ (10 μM≥+++>5 μM)	− (0.25 μM≥−)	− (0.25 μM≥−)	− (0.25 μM≥−)	1 to 10	< 1	< 100	–
NS(=O)(=O)c1ccc(Cc2c(-c3ccc(Cl)cc3)nn(-c3nc(C(=O)O)cs3)c2CC2CC2)cc1F [Example 16, 2-(3-(4-chlorophenyl)-5-(cyclopropylmethyl)-4-(3-fluoro-4-sulfamoylbenzyl)-1H-pyrazol-1-yl)thiazole-4-carboxylic acid]	++ (5 μM≥++>1 μM)	− (0.25 μM≥−)	− (0.25 μM≥−)	− (0.25 μM≥−)	10 to 100	< 1	–	< 100
NS(=O)(=O)c1ccc(Cc2c(-c3ccc(F)c(F)c3)nn(-c3nc(C(=O)O)cs3)c2CC2CC2)cc1F [Example 12, 2-(5-(Cyclopropylmethyl)-3-(3,4-difluorophenyl)-4-(3-fluoro-4-sulfamoylbenzyl)-1H-pyrazol-1-yl)thiazole-4-carboxylic acid]	+++ (10 μM≥+++>5 μM)	− (0.25 μM≥−)	− (0.25 μM≥−)	− (0.25 μM≥−)	1 to 10	< 1	< 100	–
NS(=O)(=O)c1ccc(Cc2c(-c3cccc(OCC(F)(F)F)c3)nn(-c3nc(C(=O)O)cs3)c2CC2CC2)cc1F [Example 22, 2-(5-(cyclopropylmethyl)-4-(3-fluoro-4-sulfamoylbenzyl)-3-(3-(2,2,2-trifluoroethoxy)phenyl)-1H-pyrazol-1-yl)thiazole-4-carboxylic acid]	++ (5 μM≥++>1 μM)	− (0.25 μM≥−)	− (0.25 μM≥−)	− (0.25 μM≥−)	1 to 10	< 1	< 100	–
NS(=O)(=O)c1ccc(Cc2c(-c3ccc(C(F)F)cc3)nn(-c3nc(C(=O)O)cs3)c2CC2CC2)cc1F [Example 21, 2-(5-(cyclopropylmethyl)-3-(4-(difluoromethyl)phenyl)-4-(3-fluoro-4-sulfamoylbenzyl)-1H-pyrazol-1-yl)thiazole-4-carboxylic acid]	++ (5 μM≥++>1 μM)	− (0.25 μM≥−)	− (0.25 μM≥−)	− (0.25 μM≥−)	10 to 100	< 1	< 100	–
NS(=O)(=O)c1c(F)cc(Cc2c(-c3ccc(F)cc3)nn(-c3nc(C(=O)O)cs3)c2CC2CC2)cc1F [Example 27, 2-(5-(Cyclopropylmethyl)-4-(3,5-difluoro-4-sulfamoylbenzyl)-3-(4-fluorophenyl)-1H-pyrazol-1-yl)thiazole-4-carboxylic acid]	–	–	–	–	1 to 10	< 1	100 to 250	–
NS(=O)(=O)c1ccc(Cc2c(-c3cc(Cl)cc(Cl)c3)nn(-c3nc(C(=O)O)cs3)c2CC2CC2)cc1F [Example 26, 2-(5-(cyclopropylmethyl)-3-(3,5-dichlorophenyl)-4-(3-fluoro-4-sulfamoylbenzyl)-1H-pyrazol-1-yl)thiazole-4-carboxylic acid]	++ (5 μM≥++>1 μM)	− (0.25 μM≥−)	− (0.25 μM≥−)	− (0.25 μM≥−)	10 to 100	< 1	100 to 250	–
NS(=O)(=O)c1ccc(Cc2c(-c3ccc(F)cc3)nn(-c3nc(C(=O)O)cs3)c2CC2CC2)cc1F [Example 1, 2-(5-(cyclopropylmethyl)-4-(3-fluoro-4-sulfamoylbenzyl)-3-(4-fluorophenyl)-1H-pyrazol-1-yl)thiazole-4-carboxylic acid]	++++ (++++>10 μM)	+ (1 μM≥+>0.25 μM)	− (0.25 μM≥−)	− (0.25 μM≥−)	1 to 10	< 1	< 100	–
COc1cc(F)cc(-c2nn(-c3nc(C(=O)O)cs3)c(CC3CC3)c2Cc2ccc(S(N)(=O)=O)c(F)c2)c1 [Example 24, 2-(5-(cyclopropylmethyl)-4-(3-fluoro-4-sulfamoylbenzyl)-3-(3-fluoro-5-methoxyphenyl)-1H-pyrazol-1-yl)thiazole-4-carboxylic acid]	–	–	–	–	1 to 10	1 to 10	< 100	–
COc1cc(-c2nn(-c3nc(C(=O)O)cs3)c(CC3CC3)c2Cc2ccc(S(N)(=O)=O)c(F)c2)ccc1C#N [Example 23, 2-(3-(4-cyano-3-methoxyphenyl)-5-(cyclopropylmethyl)-4-(3-fluoro-4-sulfamoylbenzyl)-1H-pyrazol-1-yl)thiazole-4-carboxylic acid]	–	–	–	–	1 to 10	< 1	< 100	–
